Values joined by “and” are separate entries in the source; they are usually repeats but may differ in a detail not shown here. Equal values may be shown once.
Tests used:
PC5/6 = PC5/6 (Homo sapiens, UniProt Q92824); test: Enzyme inhibition assay, fluorogenic substrate, PC5/6; format: biochemical
Method: (§1) Enzyme inhibition assays for furin (FIG. 5D) were performed in 100 mM Hepes pH 7.5, 1 mM CaCl2, 1 mM β-mercaptoethanol, 0.5 μg/μL BSA. Assays for PC2 (FIG. 5E) were performed in 20 mM Bis-Tris pH 5,7, 1 mM CaCl2, 0.1% Brij-30. Assays for PC1/3, PC4, PACE4, PC5/6 and PC7 (FIGS. 5F, G, A, B and C respectively) were performed in 20 mM Bis-Tis pH 6.5, 1 mM CaCl2. All assays were performed with the substrate pyroGlu-Arg-[…]-Lys-Arg-methyl-coumaryl-7-amide (SEQ ID NO: 33) (PyrRTKR-MCA (SEQ ID NO: 34)) (Bachem, CA) at 100 μM for furin, PC1/3, PC4, PACE4 and PC5/6, 200 μM for PC2 and 250 μM for PC7. Assays were carried out at 37° C. for 30-60 min and real-time fluorescence was measured with an excitation wavelength of 370 nm and an emission wavelength of 460 nm using a Gemini XS™ 96-well spectrofluorometer and SoftMaxPro4™ software (Molecular Devices, CA). Inhibitory peptides were added to the enzymes at decreasing concentrations from 100 μM to 50 nM and incubated 5 minutes prior to the addition of substrate.

furin = furin (Homo sapiens, UniProt P09958); test: Enzyme inhibition assay, fluorogenic substrate, furin; format: biochemical
Sequence of furin (P09958 108-794, species assumed): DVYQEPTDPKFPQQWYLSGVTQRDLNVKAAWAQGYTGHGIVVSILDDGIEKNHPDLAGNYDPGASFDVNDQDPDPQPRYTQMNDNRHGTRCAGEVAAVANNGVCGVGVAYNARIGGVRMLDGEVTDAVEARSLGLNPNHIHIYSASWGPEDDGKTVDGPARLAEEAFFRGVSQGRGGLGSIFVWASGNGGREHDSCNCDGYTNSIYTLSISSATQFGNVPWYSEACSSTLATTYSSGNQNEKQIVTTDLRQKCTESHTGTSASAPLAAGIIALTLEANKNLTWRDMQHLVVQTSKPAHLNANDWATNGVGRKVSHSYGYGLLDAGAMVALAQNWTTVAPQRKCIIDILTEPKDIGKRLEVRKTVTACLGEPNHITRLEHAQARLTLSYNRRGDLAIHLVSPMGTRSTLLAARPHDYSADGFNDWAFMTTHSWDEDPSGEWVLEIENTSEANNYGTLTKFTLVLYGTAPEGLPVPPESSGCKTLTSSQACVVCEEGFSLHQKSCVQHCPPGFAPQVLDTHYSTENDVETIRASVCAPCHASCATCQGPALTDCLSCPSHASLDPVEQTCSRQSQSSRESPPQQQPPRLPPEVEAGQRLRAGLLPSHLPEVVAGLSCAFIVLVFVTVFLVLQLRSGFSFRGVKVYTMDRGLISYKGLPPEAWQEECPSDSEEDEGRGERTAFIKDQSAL
Method: as §1

PC1/3 = target: T1, PC1/3 (Homo sapiens, UniProt P29120); test: Enzyme inhibition assay, fluorogenic substrate, PC1/3; format: biochemical
T1 sequence (P29120 111-753): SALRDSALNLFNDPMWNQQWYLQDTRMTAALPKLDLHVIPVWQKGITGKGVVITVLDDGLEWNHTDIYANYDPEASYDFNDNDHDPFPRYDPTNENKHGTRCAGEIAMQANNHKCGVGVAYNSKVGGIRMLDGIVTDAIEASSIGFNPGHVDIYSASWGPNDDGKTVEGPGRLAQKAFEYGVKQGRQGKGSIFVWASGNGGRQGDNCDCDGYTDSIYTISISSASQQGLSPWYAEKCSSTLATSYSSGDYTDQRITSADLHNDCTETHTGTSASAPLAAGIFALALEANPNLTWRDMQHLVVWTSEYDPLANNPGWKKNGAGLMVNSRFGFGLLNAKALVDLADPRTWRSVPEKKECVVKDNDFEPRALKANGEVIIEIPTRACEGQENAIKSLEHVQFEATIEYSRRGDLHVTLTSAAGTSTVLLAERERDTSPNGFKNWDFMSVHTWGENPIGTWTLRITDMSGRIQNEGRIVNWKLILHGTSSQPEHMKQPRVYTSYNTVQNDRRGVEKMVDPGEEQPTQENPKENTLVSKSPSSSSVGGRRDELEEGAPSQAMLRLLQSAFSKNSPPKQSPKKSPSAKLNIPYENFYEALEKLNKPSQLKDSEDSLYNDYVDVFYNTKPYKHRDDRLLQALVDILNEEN
Method: as §1

PC7 = target: T2, PC7 (Homo sapiens, UniProt Q16549); test: Enzyme inhibition assay, fluorogenic substrate, PC7; format: biochemical; conditions: 20 mM Bis-Tis pH 6.5, 1 mM CaCl2, substrate 250 μM, 37° C.
T2 sequence (Q16549 142-785): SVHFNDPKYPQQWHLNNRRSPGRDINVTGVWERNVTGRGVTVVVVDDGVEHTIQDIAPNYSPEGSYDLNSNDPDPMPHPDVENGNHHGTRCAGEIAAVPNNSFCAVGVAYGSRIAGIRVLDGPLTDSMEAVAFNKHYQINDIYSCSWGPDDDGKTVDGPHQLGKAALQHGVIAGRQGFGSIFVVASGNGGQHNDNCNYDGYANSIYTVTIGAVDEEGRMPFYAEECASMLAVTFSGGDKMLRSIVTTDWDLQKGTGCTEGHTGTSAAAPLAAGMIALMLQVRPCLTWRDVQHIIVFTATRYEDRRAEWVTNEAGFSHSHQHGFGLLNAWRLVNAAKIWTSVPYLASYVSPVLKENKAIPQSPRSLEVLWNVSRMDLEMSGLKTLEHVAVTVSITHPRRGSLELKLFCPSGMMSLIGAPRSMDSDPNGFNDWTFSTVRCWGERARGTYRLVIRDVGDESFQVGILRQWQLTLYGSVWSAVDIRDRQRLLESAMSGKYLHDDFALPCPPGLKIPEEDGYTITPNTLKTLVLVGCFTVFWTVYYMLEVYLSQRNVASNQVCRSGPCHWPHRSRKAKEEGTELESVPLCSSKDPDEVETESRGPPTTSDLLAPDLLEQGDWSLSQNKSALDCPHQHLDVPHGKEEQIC
Method: as §1

[1] = system: prostatic cell line DU145; test: MTT cell proliferation index, DU145; format: cell-based, human; conditions: control = 100%, MTT after 48 hours
Method: The effects of the PACE4 inhibitors on cell proliferation were evaluated. MTT assay was used to evaluate the effects of PACE4 inhibitors on cell proliferation. MTT (3-(4,5-Dimethylthiazol-2-yl)-2,5-diphenyltetrazolium bromide) assay is a standard colorimetric assay for measuring cellular proliferation. Yellow MTT is reduced to purple formazan in the mitochondria of living cells. This reduction takes place only when mitochondrial reductase enzymes are active. Conversion is directly related to the number of viable cells. The MTT assay is quantitative and more sensitive than viability using trypan blue and can also be adapted to 96 well formats, whereas trypan blue tests must be read individually. Because the MTT assay requires less cell manipulation than [^3H]thymidine incorporation assays (no cell harvesting or medium changes are necessary), the possibility of error is reduced and the standard deviation values are lower. […] Other assays also known can be used to determine the effects of an inhibitor on the proliferation of a cell.
The index of cellular proliferation of cells treated with the ML and acetyl-ML (CH3CO—NH-[…]-CONH2 (SEQ ID NO: 5), see Table 2) peptides were measured using the colorimetric MTT assay (thiazolyl blue tetrazolium bromide; Sigma-Aldrich). Briefly, cells were seeded in 96-well plate (BD Biosciences) in triplicate with 100 μl of a 3.5×10^4 cells/ml cell suspension in complete growth medium. The following day, cells were carefully washed twice with PBS and media were replaced with 100 μl of either RPMI or conditioned growth media. Conditioned growth medium preparation consists in 1.2×10^5 cells seeded in 6-well plates with complete growth media. The next day, cells are washed twice with PBS and the media are replaced with 1 ml RPMI growth medium. 48 hours later, the conditioned media are collected, filtered through […] syringe filter units and incubated on different cell lines.
48 hours later, 20 μl of a MTT solution (5 mg/ml in PBS 1×) was added to each well for 4.5 h at 37° C./5% CO2. The media was then discarded and the cells were solubilized with 100 μl isopropanol/0.04 N HCl solution. The absorbance was measured at a wavelength of 550 nm with a reference at 650 nm in microplate reader (SpectraMax190™; Molecular Devices).

[2] = system: gliobastoma cell line U251; test: MTT cell proliferation index, U251; format: cell-based, human
Method: (§2) The effects of the PACE4 inhibitors on cell proliferation were evaluated. MTT assay was used to evaluate the effects of PACE4 inhibitors on cell proliferation. MTT (3-(4,5-Dimethylthiazol-2-yl)-2,5-diphenyltetrazolium bromide) assay is a standard colorimetric assay for measuring cellular proliferation. Yellow MTT is reduced to purple formazan in the mitochondria of living cells. This reduction takes place only when mitochondrial reductase enzymes are active. Conversion is directly related to the number of viable cells. The MTT assay is quantitative and more sensitive than viability using trypan blue and can also be adapted to 96 well formats, whereas trypan blue tests must be read individually. […]
(§3) The index of cellular proliferation of cells treated with the ML and acetyl-ML (CH3CO—NH-[…]-CONH2 (SEQ ID NO: 5), see Table 2) peptides were measured using the colorimetric MTT assay (thiazolyl blue tetrazolium bromide; Sigma-Aldrich). […]
(§4) 48 hours later, 20 μl of a MTT solution (5 mg/ml in PBS 1×) was added to each well for 4.5 h at 37° C./5% CO2. […] The absorbance was measured at a wavelength of 550 nm with a reference at 650 nm in microplate reader (SpectraMax190™; Molecular Devices).

[3] = system: sarcofibroma cell line HT1080; test: MTT cell proliferation index, HT1080; format: cell-based, human
Method: as §2, §3, §4

PACE4 = target: T3, PACE4 (Homo sapiens, UniProt P29122); test: Enzyme inhibition assay, fluorogenic substrate, PACE4; format: biochemical
T3 sequence (P29122 150-969): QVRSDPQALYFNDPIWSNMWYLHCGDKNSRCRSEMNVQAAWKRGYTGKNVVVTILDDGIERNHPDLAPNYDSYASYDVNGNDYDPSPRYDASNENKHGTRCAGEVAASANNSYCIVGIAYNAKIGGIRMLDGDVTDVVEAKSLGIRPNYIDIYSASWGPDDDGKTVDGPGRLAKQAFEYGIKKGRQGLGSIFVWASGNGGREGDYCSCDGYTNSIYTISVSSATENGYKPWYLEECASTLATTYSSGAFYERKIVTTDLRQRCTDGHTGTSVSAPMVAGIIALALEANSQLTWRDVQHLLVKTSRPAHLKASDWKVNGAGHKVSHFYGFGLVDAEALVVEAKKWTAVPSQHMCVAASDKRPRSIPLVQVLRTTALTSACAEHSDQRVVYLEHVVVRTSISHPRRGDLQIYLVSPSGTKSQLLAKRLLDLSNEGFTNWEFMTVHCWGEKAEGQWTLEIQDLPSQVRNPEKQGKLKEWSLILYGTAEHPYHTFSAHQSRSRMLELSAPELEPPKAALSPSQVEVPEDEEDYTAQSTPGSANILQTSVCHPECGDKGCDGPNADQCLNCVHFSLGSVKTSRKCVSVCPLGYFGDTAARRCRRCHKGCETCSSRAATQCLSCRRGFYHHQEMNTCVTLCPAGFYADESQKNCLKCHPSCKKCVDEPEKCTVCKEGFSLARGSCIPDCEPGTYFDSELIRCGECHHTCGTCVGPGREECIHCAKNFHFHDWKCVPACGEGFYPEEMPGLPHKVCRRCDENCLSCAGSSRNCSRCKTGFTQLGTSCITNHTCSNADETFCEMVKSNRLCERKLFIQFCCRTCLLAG
Source text: Those skilled in the art can easily determine PACE4 activity using routine experimentation. For example, the activity assay of PACE4 can be carried out in 96 well plates, and includes the use of a fluorogenic substrate, namely PyrRTKR-AMC (SEQ ID NO: 30) (AMC is amino-methyl-coumarin). The substrate and the purified enzyme are placed in the wells, and depending on the units of enzyme present, the AMC moiety will be cleaved at a certain rate, such a pmoles/sec. The resultant free AMC is now fluorescent and can be detected with a spectrofluorometer. The addition of inhibitors to the assay will yield progress curves that have lesser slopes. Based on these changes the inhibitory constants (Ki) is calculated (Fugere et al., 2002, J. Biol. Chem., 277:7648-56).
as §1

DU145 cells = test: Annexin-V-FITC/propidium iodide apoptosis assay, DU145; format: cell-based, human; conditions: DU145, 66 μM, 48 h
Method: The annexin V assay is based on the observation that soon after initiating apoptosis, cells translocate the membrane phosphatidylserine from the inner face of the plasma membrane to the cell surface. Once on the cell surface, phosphatidylserine can be easily detected by staining with a fluorescent conjugate of Annexin V, a protein that has a high affinity for phosphatidylserine. Detection is analyzed by flow cytometry. […] This analysis was performed with a FITC-conjugated annexin-V, which has a strong affinity for these extracellular phosphatidylserines, and the fluorescent intercalating agent propidium iodide (PI). Cell lines were seeded in a 6-well plate at a density of 8×10^4 cells/well in complete growth medium. The next day, cells were washed twice with PBS and complete growth media with or without cisplatin (Sigma) at final concentration of 66 μM were added. After a 48 hours incubation period, growth media were collected and combined to the harvested cells obtained after trypsin treatment. The collected pellets were washed with PBS before staining. Then, cells were stained with the Annexin-V-FLUOS™ Staining Kit (Roche Applied science), which double labeled cells with annexin-V-fluorescein isothiocyanate (FITC) and propidium iodide (PI). Stained cells were then analyzed with FACScan flow cytometer (BD Biosciences).

[4] = system: 4-2 cells (DU145 transfected with PACE4-SOFA-δRz); test: Annexin-V-FITC/propidium iodide apoptosis assay, 4-2 cells; format: cell-based, human; conditions: 66 μM, 48 h
Method: To determine if the reduced cell number observed in the 4-2 cell line, described previously in Example 3, was a consequence of the induction of the apoptosis, the translocation of phosphatidylserine from the inner to the outer leaflet of the plasma membrane was analyzed. This analysis was performed with a FITC-conjugated annexin-V, which has a strong affinity for these extracellular phosphatidylserines, and the fluorescent intercalating agent propidium iodide (PI). Cell lines were seeded in a 6-well plate at a density of 8×10^4 cells/well in complete growth medium. The next day, cells were washed twice with PBS and complete growth media with or without cisplatin (Sigma) at final concentration of 66 μM were added. After a 48 hours incubation period, growth media were collected and combined to the harvested cells obtained after trypsin treatment. The collected pellets were washed with PBS before staining. Then, cells were stained with the Annexin-V-FLUOS™ Staining Kit (Roche Applied science), which double labeled cells with annexin-V-fluorescein isothiocyanate (FITC) and propidium iodide (PI). Stained cells were then analyzed with FACScan flow cytometer (BD Biosciences).

Sequence of PC5/6 (Q92824 115-1860): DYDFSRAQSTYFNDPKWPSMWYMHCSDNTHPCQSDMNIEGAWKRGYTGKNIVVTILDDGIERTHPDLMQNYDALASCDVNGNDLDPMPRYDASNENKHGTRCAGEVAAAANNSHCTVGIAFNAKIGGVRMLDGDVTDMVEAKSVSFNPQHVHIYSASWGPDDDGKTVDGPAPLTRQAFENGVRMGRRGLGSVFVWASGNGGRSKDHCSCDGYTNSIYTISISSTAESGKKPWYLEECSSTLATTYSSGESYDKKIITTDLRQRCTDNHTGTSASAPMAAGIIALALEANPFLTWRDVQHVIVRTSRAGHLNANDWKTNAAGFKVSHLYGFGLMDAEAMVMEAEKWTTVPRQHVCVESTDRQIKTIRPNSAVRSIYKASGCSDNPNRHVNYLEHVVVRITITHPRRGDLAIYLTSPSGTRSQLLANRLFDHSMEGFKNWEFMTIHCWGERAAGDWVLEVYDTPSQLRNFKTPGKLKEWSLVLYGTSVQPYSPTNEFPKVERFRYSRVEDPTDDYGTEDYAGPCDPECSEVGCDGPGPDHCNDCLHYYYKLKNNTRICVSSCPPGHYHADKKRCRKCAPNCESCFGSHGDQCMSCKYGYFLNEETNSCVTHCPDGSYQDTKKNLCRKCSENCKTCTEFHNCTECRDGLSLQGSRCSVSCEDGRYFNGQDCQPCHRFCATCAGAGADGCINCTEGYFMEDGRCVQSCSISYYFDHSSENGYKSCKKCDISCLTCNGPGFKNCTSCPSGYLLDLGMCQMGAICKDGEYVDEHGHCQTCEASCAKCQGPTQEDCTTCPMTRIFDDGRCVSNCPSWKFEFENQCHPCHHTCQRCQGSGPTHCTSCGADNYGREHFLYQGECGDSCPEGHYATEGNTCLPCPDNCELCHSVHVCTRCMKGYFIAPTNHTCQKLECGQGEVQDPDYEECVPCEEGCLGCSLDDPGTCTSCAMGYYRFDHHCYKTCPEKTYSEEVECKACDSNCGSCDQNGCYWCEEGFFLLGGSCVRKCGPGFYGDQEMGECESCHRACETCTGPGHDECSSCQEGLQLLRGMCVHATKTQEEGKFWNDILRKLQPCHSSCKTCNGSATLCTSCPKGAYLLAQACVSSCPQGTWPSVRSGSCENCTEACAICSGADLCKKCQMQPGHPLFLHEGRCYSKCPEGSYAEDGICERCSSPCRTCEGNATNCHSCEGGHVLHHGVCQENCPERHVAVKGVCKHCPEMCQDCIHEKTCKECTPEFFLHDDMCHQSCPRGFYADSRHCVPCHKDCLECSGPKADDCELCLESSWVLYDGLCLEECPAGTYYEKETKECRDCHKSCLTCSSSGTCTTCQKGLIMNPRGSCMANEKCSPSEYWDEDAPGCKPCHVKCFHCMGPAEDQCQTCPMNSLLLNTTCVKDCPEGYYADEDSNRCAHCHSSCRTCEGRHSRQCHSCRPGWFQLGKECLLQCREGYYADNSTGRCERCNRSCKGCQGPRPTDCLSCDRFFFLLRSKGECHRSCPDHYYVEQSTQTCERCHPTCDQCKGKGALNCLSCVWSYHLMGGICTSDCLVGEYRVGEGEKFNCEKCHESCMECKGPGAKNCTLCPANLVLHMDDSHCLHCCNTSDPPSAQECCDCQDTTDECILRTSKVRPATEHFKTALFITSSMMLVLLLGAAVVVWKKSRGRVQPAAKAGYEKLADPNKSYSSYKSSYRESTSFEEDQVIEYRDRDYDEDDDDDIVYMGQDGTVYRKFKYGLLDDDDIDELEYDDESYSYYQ

inhibition potency on furin, in words (furin) | Ki (PC7) | Molecule | Cell proliferation index ([1]; DU145, 1 μM peptide) | Cell proliferation index ([1]; DU145, 10 μM peptide) | Cell proliferation index ([1]; DU145, 50 μM peptide) | Cell proliferation index ([1]; DU145, 100 μM peptide) | effect on cell proliferation index, in words [2] | effect on cell proliferation index, in words [3] | further results
mid-nanomolar inhibitors |  | LLRVKR [LLRVKR—NH2, LLRVKR-NH2] |  |  |  |  |  |  | inhibition potency on PC5/6, in words (PC5/6): mid-low nanomolar range; inhibition potency on PC1/3, in words (PC1/3): best inhibited
 | 35 to 50 nM | CC(C)C[C@H](NC(=O)[C@H](CC(C)C)NC(=O)[C@H](CC(C)C)NC(=O)[C@@H](N)CC(C)C)C(=O)N[C@@H](CC(C)C)C(=O)N[C@@H](CCCNC(=N)N)C(=O)N[C@H](C(=O)N[C@@H](CCCCN)C(=O)N[C@@H](CCCNC(=N)N)C(N)=O)C(C)C [5 Leu] |  |  |  |  |  |  | 
 |  | CH3CO—NH-LLLLRVKR-NH2 (Ac-LLLLRVKR-NH2) [acetyl ML] | 63.84% | 41.91% | 25.79% | 24.05% | significant effects | significant effects | 
 | 35 to 50 nM and 50 nM | H-LLLLRVKR-NH2 [ML] | 97.73% | 92.03% | 72.57% | 54.70% | significant effects | significant effects | inhibition potency on PACE4, in words (PACE4): nanomolar range; Ki (PACE4; 20 mM Bis-Tis pH 6.5, 1 mM CaCl2, substrate 100 μM, 37° C.): 6 nM; more effective on PACE4 than the other PCs (PACE4; ratio of Ki values, other PCs vs PACE4): ≥ 9 folds
 |  | N.N.[Cl][Pt][Cl] [cisplatin] |  |  |  |  |  |  | annexin-V positivity (DU145 cells; untreated 2%): 30%; PI staining (dead cells) (DU145 cells; untreated 6%): 12%; annexin-V positivity ([4]; untreated 3%): 17%; PI staining (dead cells) ([4]; untreated 7%): 16%
mid-nanomolar inhibitors |  | LRVKR [LRVKR—NH2, LRVKR-NH2] |  |  |  |  |  |  | 

Source: patent US8658591B2, “Multi-LEU peptides and analogues thereof as selective PACE4 inhibitors and effective antiproliferative agents” (priority 2008, dated 2014)
